Columns and labels:
green peach aphid = assay: Myzus test (cabbage leaf dip); type: in vivo, Myzus (green peach aphid); details: concentration 0.00016 %
Experimental: (§1) To produce a suitable preparation of active compound, 1 part by weight of an active compound or an active compound combination is mixed with the stated amounts of solvent and emulsifier, and the concentrate is diluted with water to the desired concentration.
Cabbage leaves (Brassica oleracea) which are heavily infested by the green peach aphid are treated by being dipped into the active compound preparation of the desired concentration.
After the desired period of time, the kill in % is determined. 100% means that all aphids have been killed; 0% means that none of the aphids have been killed.

Spodoptera frugiperda = assay: Critical concentration test/soil insects, Spodoptera frugiperda; type: in vivo; details: 120 h, 5 days after infestation, read-out: Kill in %
Experimental: (§2) To produce a suitable preparation of active compound, 1 part by weight of the active compound or the active compound mixture is mixed with the stated amounts of solvent and emulsifier, and the concentrate is diluted with water to the desired concentration.
(§3) The active compound preparation is mixed intimately with soil. Here, the concentration of the active compound in the preparation is almost irrelevant; only the amount by weight of active compound or active compound mixture per volume unit of soil, which is stated in ppm (mg/l), matters.
Soil is filled into 0.5 l pots and these are allowed to stand at 20° C. Immediately after preparation, 3 pre-germinated maize corns are placed into each pot. After the maize corns have emerged, boring sleeves are placed onto the pots. 9 days after preparation, the maize is populated with the test insects. After a further 5 days, the kill in % is determined. 100% means that all test insects have been killed; 0% means that the number of insects which are still alive is the same as for the untreated control.

[1] = system: Phaedon cochleariae larvae; assay: Critical concentration test/root-systemic action, Phaedon cochleariae; type: in vivo; details: 72 h, root-systemic, 3 days after infestation, read-out: Kill in %
Experimental: as §2, §3
Soil is filled into 250 ml pots and these are planted with cabbage (Brassica oleracea). The active compound or the active compound combination can thus be taken up by the plant roots from the soil and transported into the leaves.
After 7 days, the leaves are populated with the abovementioned test animals. After a further 3 days, the kill in % is determined. 100% means that all test insects have been killed; 0% means that the number of insects which are still alive is the same as in the untreated control.

Sphaerotheca fuliginea = assay: Sphaerotheca test (cucumber)/protective; type: in vivo; details: 10 g/ha, single active compound, 10 days after inoculation
Experimental: as §1, with “of” for “of an”, “or” for “or an”, “desired concentration, or a commercial formulation of active compound or active compound combination is diluted with water to the desired” for “desired”
To test for protective activity, young plants are sprayed with the commercial active compound preparation at the stated application rate. After the spray coating has dried on, the plants are inoculated with an aqueous spore suspension of Sphaerotheca fuliginea. The plants are then placed in a greenhouse at approximately 23° C. and a relative atmospheric humidity of approximately 70%.
(§4) Evaluation is carried out 10 days after the inoculation. 0% means an efficacy which corresponds to that of the control, whereas an efficacy of 100% means that no infection is observed.

Puccinia recondita = assay: Puccinia test (wheat)/protective; type: in vivo; details: 62.5 g/ha, 10 days after inoculation
Experimental: as §1, with “of” for “of an”, “or” for “or an”, “desired concentration, or a commercial formulation of active compound or active compound combination is diluted with water to the desired” for “desired”
To test for protective activity, young plants are sprayed with the active compound preparation at the stated application rate. After the spray coating has dried on, the plants are sprayed with a conidia suspension of Puccinia recondita. The plants remain in an incubation cabin at 20° C. and 100% relative atmospheric humidity for 48 hours.
The plants are then placed in a greenhouse at a temperature of approximately 20° C. and a relative atmospheric humidity of 80% to promote the development of rust pustules.
as §4

N#C/N=C1/SCCN1Cc1ccc(Cl)nc1 [formula (I)]
Kill in % (green peach aphid): 25%
pest or weed control at 5 ppm (Spodoptera frugiperda; 5.00 ppm in soil): 0%
pest or weed control at 10 ppm (Spodoptera frugiperda; 10.00 ppm in soil): 50%
pest or weed control at 20 ppm (Spodoptera frugiperda; 20.00 ppm in soil): 100%
pest or weed control at 2.5 ppm ([1]; 2.50 ppm in soil): 0%
pest or weed control at 5 ppm ([1]; 5.00 ppm in soil): 80%
pest or weed control at 10 ppm ([1]; 10.00 ppm in soil): 95%
Efficacy in % (Sphaerotheca fuliginea): 0%
Efficacy in % (Puccinia recondita): 0%
